In patent US20010008892A1 (priority 1998, published 2001):
pEC50: −log10 of the molar value.

Legend:
HIV-1 protease = HIV-1 protease (Human immunodeficiency virus type 1 group M subtype B, UniProt P04585); assay: Fluorogenic assay for screening inhibitors of HIV protease; settings: compound concentration 0.5 nM; fluorogenic substrate 1.3 μM, pH 4.5, 30° C.
Description: A compound of the invention is dissolved in DMSO. A small aliquot is diluted with DMSO to 100 times the final concentration desired for testing. The test is carried out in a 6×50 mm tube in a total volume of 300 microliters. The final concentrations of the components in the reaction buffer are: 125 mM sodium acetate, 1 M sodium chloride, 5 mM dithiothreitol, 0.5 mg/ml bovine serum albumin, 1.3 μM fluorogenic substrate, 2% (v/v) dimethylsulfoxide, pH 4.5. After addition of inhibitor, the reaction mixture is placed in the fluorometer cell holder and incubated at 30° C. for several minutes. The reaction is initiated by the addition of a small aliquot of cold HIV protease. The fluorescence intensity (excitation 340 nm, emmision 490 nM) is recorded as a function of time. The reaction rate is determined for the first six to eight minutes. The observed rate is directly proportional to the moles of substrate cleaved per unit time. The percent inhibition is 100×(1- (rate in presence of inhibitor)/(rate in absence of inhibitor)).
The test compounds were then tested at a concentration of 0.5 nM.

MT4 cells = assay: Cytotoxicity in MT4 cells (LC50, 50% of the cells remain viable); assay type: cell-based; settings: MT4 cells; concentration at which 50% of the cells remain viable
Description: (§1) The IC50 is the concentration of compound that gives 50% inhibition of the cytopathic effect of HIV. The LC50 is the concentration of compound at which 50% of the cells remain viable.

HIV = assay: Antiviral activity: inhibition of the cytopathic effect of HIV in MT4 cells; assay type: cell-based; settings: MT4 cells; 50% inhibition of the cytopathic effect of HIV; read-out: EC50
Description: as §1

Compound	% Inhib. (0.5 nM) (HIV-1 protease)	CC50 (MT4 cells)	pEC50 (HIV)
Cc1nc(COC(=O)N[C@H](C(=O)N[C@@H](Cc2ccccc2)[C@H](O)CN2CCN(Cc3ccc(F)cc3)C[C@H]2C(=O)NC(C)(C)C)C(C)C)cs1 [Example 17, 2-Methyl-4-thiazolylmethyl-[(1S)-1-[[[(1S,2R)-3-[(2S)-2-[[(1,1-dimethylethyl)amino]carbonyl]-4-[(4-fluorophenyl)methyl]-1-piperazinyl]-2-hydroxy-1-(phenylmethyl)propyl]amino]carbonyl]-2-methylpropyl]carbamate]	50%	39200 nM	7.96
Cc1nc(COC(=O)N[C@H](C(=O)N[C@@H](Cc2ccccc2)[C@H](O)CN2CCN(Cc3ccc4c(c3)OCO4)C[C@H]2C(=O)NC(C)(C)C)C(C)C)cs1 [Example 15, 2-Methyl-4-thiazolylmethyl-[(1S)-1-[[[(1S,2R)-3-[(2S)-4-(1,3-benzodioxol-5-ylmethyl)-2-[[(1,1-dimethylethyl)amino]carbonyl]-1-piperazinyl]-2-hydroxy-1-(phenylmethyl)propyl]amino]carbonyl]-2-methylpropyl]carbamate]	45%	53100 nM	7.96
CC(C)c1nc(COC(=O)N[C@H](C(=O)N[C@@H](Cc2ccccc2)[C@H](O)CN2CCN(Cc3cccnc3)C[C@H]2C(=O)NC(C)(C)C)C(C)C)cs1 [Example 6, 2-(1-Methylethyl)-4-thiazolylmethyl-[(1S)-1-[[[(1S,2R)-3-[(2S)-2-[[(1,1-dimethylethyl)amino]carbonyl]-4-(3-pyridinylmethyl)-1-piperazinyl]-2-hydroxy-1-(phenylmethyl)propyl]amino]carbonyl]-2-methylpropyl]carbamate]	60%	58600 nM	7.92
COc1ccc(CN2CCN(C[C@@H](O)[C@H](Cc3ccccc3)NC(=O)[C@@H](NC(=O)OCc3csc(C)n3)C(C)C)[C@H](C(=O)NC(C)(C)C)C2)cc1OC [Example 16, 2-Methyl-4-thiazolylmethyl-[(1S)-1-[[[(1S,2R)-3-[(2S)-4-[(3,4-dimethoxylphenyl)methyl]-2-[[(1,1-dimethylethyl)amino]carbonyl]-1-piperazinyl]-2-hydroxy-1-(phenylmethyl)propyl]amino]carbonyl]-2-methylpropyl]carbamate]	49%	61700 nM	8.00
CC(C)c1nc(COC(=O)N[C@H](C(=O)N[C@@H](Cc2ccccc2)[C@H](O)CN2CCN(Cc3cccc(O)c3)C[C@H]2C(=O)NC(C)(C)C)C(C)C)cs1 [Example 5, 2-(1-Methylethyl)-4-thiazolylmethyl-[(1S)-1-[[[(1S,2R)-3-[(2S)-2-[[(1,1-dimethylethyl)amino]carbonyl]-4-[4-(3-hydroxyphenyl)methyl]-1-piperazinyl]-2-hydroxy-1-(phenylmethyl)propyl]amino]carbonyl]-2-methylpropyl]carbamate]	69%	16700 nM	7.40
COc1ccc(CN2CCN(C[C@@H](O)[C@H](Cc3ccccc3)NC(=O)[C@@H](NC(=O)OCc3csc(C(C)C)n3)C(C)C)[C@H](C(=O)NC(C)(C)C)C2)cc1OC [Example 11, 2-(1-Methylethyl)-4-thiazolylmethyl[(1S)-1-[[[(1S,2R)-3-[(2S)-4-[(3,4-dimethoxylphenyl)methyl]-2-[[(1,1-dimethylethyl)amino]carbonyl]-1-piperazinyl]-2-hydroxy-1-(phenylmethyl)propyl]amino]carbonyl]-2-methylpropyl]carbamate]	62%	18300 nM	7.77
CC(C)[C@H](NC(=O)OCc1cncs1)C(=O)N[C@@H](Cc1ccccc1)[C@H](O)CN1CCN(Cc2cncs2)C[C@H]1C(=O)NC(C)(C)C [Example 25]	45%	> 100000 nM	7.24
CCc1nc(COC(=O)N[C@H](C(=O)N[C@@H](Cc2ccccc2)[C@H](O)CN2CCN(Cc3ccc(OC)c(OC)c3)C[C@H]2C(=O)NC(C)(C)C)C(C)C)cs1 [Example 18]	82%	44600 nM	7.72
COc1ccc(CN2CCN(C[C@@H](O)[C@H](Cc3ccccc3)NC(=O)[C@@H](NC(=O)OCc3cnc(C(C)C)s3)C(C)C)[C@H](C(=O)NC(C)(C)C)C2)cc1OC [Example 19, 2-(1-Methylethyl)-5-thiazolylmethyl-[(1S)-1-[[[(1S,2R)-3-[(2S)-4-[(3,4-dimethoxylphenyl)methyl]-2-[[(1,1-dimethylethyl)amino]carbonyl]-1-piperazinyl]-2-hydroxy-1-(phenylmethyl)propyl]amino]carbonyl]-2-methylpropyl]carbamate]	51%	20700 nM	7.77
CCc1ncc(COC(=O)N[C@H](C(=O)N[C@@H](Cc2ccccc2)[C@H](O)CN2CCN(Cc3ccc(OC)c(OC)c3)C[C@H]2C(=O)NC(C)(C)C)C(C)C)s1 [Example 20]	37%	49700 nM	7.80
CC(C)c1nc(COC(=O)N[C@H](C(=O)N[C@@H](Cc2ccccc2)[C@H](O)CN2CCN(Cc3nc4ccccc4[nH]3)C[C@H]2C(=O)NC(C)(C)C)C(C)C)cs1 [Example 9]	65%	18400 nM	7.34
2-(1-Methylethyl)-4-thiazolylmethyl-(1S)-1-[[[(1S,2R)-3-[[(4-aminophenyl)sulfonyl](1-methylethyl)amino]-2-hydroxy-1-(phenylmethyl)propyl]amino]carbonyl]-2-methylpropyl]carbamate [Example 28]	77%	49500 nM	7.96
CC(C)c1nc(COC(=O)N[C@H](C(=O)N[C@@H](Cc2ccccc2)[C@H](O)CN2CCN(Cc3ccc(F)cc3)C[C@H]2C(=O)NC(C)(C)C)C(C)C)cs1 [Example 3]	64%	15700 nM	7.68
CC(C)c1nc(COC(=O)N[C@H](C(=O)N[C@@H](Cc2ccccc2)[C@H](O)CN2CCN(Cc3ccncc3)C[C@H]2C(=O)NC(C)(C)C)C(C)C)cs1 [Example 7, 2-(1-Methylethyl)-4-thiazolylmethyl-[(1S)-1-[[[(1S,2R)-3-[(2S)-2-[[(1,1-dimethylethyl)amino]carbonyl]-4-(4-pyridinylmethyl)-1-piperazinyl]-2-hydroxy-1-(phenylmethyl)propyl]amino]carbonyl]-2-methylpropyl]carbamate]	73%	55200 nM	7.77
CC(C)c1ncc(CN(C)C(=O)N[C@H](C(=O)N[C@@H](Cc2ccccc2)[C@H](O)CN2C[C@H]3CCCC[C@H]3C[C@H]2C(=O)NC(C)(C)C)C(C)C)s1 [Example 31, N′-[(1S)-1-[[[(1S,2 R)-3-[(3S)-3-[[(1,1-Dimethylethyl)amino]carbonyl](4aα,8aα)-octahydro-2-isoquinolinyl]-2-hydroxy-1-(phenylmethyl)propyl]amino]carbonyl]-2-methylpropyl]-N-methyl-N-[2-(1-methylethyl)-5-thiazolylmethyl]urea]	48%	17200 nM	7.24
5-Thiazolylmethyl-[(1S)-1-[[[(1S,2R)-3-[(2S)-2-[[(1,1-dimethylethyl)amino]carbonyl]-4-(phenylmethyl)-1-piperazinyl]-2-hydroxy-1-(phenylmethyl)propyl]amino]carbonyl]-2-methylpropyl]carbamate [Example 24]	40%	55400 nM	7.77
CC(C)c1nc(COC(=O)N[C@H](C(=O)N[C@@H](Cc2ccccc2)[C@H](O)CN2CCN(Cc3ccc(O)cc3)C[C@H]2C(=O)NC(C)(C)C)C(C)C)cs1 [Example 8, 2-(1-Methylethyl)-4-thiazolylmethyl-[(1S)-1-[[[(1S,2R)-3-[(2S)-2-[[(1,1-dimethylethyl)amino]carbonyl]-4-[(4-hydroxyphenyl)methyl]-1-piperazinyl]-2-hydroxy-1-(phenylmethyl)propyl]amino]carbonyl]-2-methylpropyl]carbamate]	54%	18900 nM	7.33
2-(1-Methylethyl)-4-thiazolylmethyl-[(1S)-1-[[[(1S,2R)-3-[[[(1,1-dimethylethyl)amino]carbonyl](2-methylethyl)propylamino]-2-hydroxy-1-(phenylmethyl)propyl]amino]carbonyl]-2-methylpropyl]carbamate [Example 27]	50%	20600 nM	6.43
2-(1-Methylethyl)-4-thiazolylmethyl-[(1S)-1-[[[(1S,2R)-3-[(2S)-2-[[(1,1-dimethylethyl)amino]carbonyl]-4-(5-thienylmethyl)-1-piperazinyl]-2-hydroxy-1-(phenylmethyl)propyl]amino]carbonyl]-2-methylpropyl]carbamate [Example 4]	67%	69000 nM	7.92
CC(C)c1nc(COC(=O)N[C@H](C(=O)N[C@@H](Cc2ccccc2)[C@H](O)CN2CCN(Cc3ccc4c(c3)OCO4)C[C@H]2C(=O)NC(C)(C)C)C(C)C)cs1 [Example 1, 2-(1-Methylethyl)-4-thiazolylmethyl-[(1S)-1-[[[(1S,2R)-3-[(2S)-4-(1,3-benzodioxol-5-ylmethyl)-2-[[(1,1-dimethylethyl)amino]carbonyl]-1-piperazinyl]-2-hydroxy-1-(phenylmethyl)propyl]amino]carbonyl]-2-methylpropyl]carbamate]	60%	12800 nM	8.52
